Data: publication doi:10.1101/2021.09.10.459855v1 (bioRxiv, 2021)

Legend:
Micelle surface charge = type: physicochemical; conditions: 100 μM in deionized, distilled water (ddH2O); Malvern DLS Zetasizer
[1] = Micelle morphology by negative-stain TEM; type: physicochemical
[2] = tested on: LPS-activated Mφ TNF-α secretion (mouse RAW 264.7); test: Mφ TNF-α secretion; type: cell-based; conditions: 6 hours
[3] = tested on: LPS-activated DC TNF-α secretion; test: DC TNF-α secretion; type: cell-based, mouse; conditions: for Decrease of DC TNF-α secretion: 6 hours
[4] = tested on: LPS-activated DC CCL22 production; test: DC CCL22 production; type: cell-based, mouse
[5] = tested on: MHC II and CD86 on LPS-activated DCs; test: DC surface marker expression, MHC II+CD86+ population; type: cell-based, mouse; conditions: 24 hours, 100 μM

Substance: Vasoactive intestinal peptide [VIP]
- Zeta potential (Micelle surface charge): 6.82 ± 0.67 mV
- Aggregation / particle morphology ([1]; 100 μM (highest concentration)): aggregate into spherical nanoparticles
- Particle formation ([1]; lower concentrations than 100 μM (data not shown)): no particle formation was observed
- Mφ TNF-α secretion ([2]; 100 μM): cytokine secretion was suppressed
- Mφ TNF-α secretion ([2]; concentration-dependent (0.1 - 100 μM), versus LPS alone): mild to moderate TNF-α suppression
- Decrease of DC TNF-α secretion ([3]; 10 μM): slightly
- Decrease of DC TNF-α secretion ([3]; 100 μM): more extensively
- DC TNF-α secretion ([3]; 24 hours, 1 μM and 10 μM, versus LPS alone): suppressed TNF-α generation
- DC CCL22 production ([4]; 1 μM and 10 μM (Figure S7)): reduced CCL22 production
- DC CCL22 production ([4]; 100 μM (Figure S7)): enhanced CCL22 expression
- MHC II and CD86 surface markers on DCs [5]: failed to downregulate MHC II and CD86
